Results: patent US7700644B2, “Isoflavonoid dimers” (Novogen Research Pty Ltd, priority 2005, dated 2010)

Key:
unstimulated splenocytes = experiment: Murine splenocytes, 24 hour pre-incubation with compound then mitogenic stimulation; type: cell-based, Male Skh-1 (hairless) mice; conditions: 10 μM
Description: (§1) Male Skh-1 (hairless) mice, six weeks old were killed by cervical dislocation. Single cell suspensions were made from their spleens and erythrocytes were lysed in buffer (0.14M NH4Cl, 17 mM Tris, pH 7.2). The remaining splenocytes were cultured in RPMI-1640 (Gibco) supplemented with 10% (v:v) FBS, 200 mM L-glutamine, penicillin/streptomycin and […] 2-mercaptoethanol. Splenocytes were added to triplicate wells containing either concanavalin A (ConA, Sigma-Aldrich—0.4 μg/well), lipopolysaccharide (LPS, Sigma-Aldrich—1 μg/well) or no mitogen, as well as 10 μM of either Compound 1 or Compound 2 in DMSO, or DMSO alone. Samples were analysed after a 3 day incubation at 37° C. in 5% CO2 in air. To assess cell numbers, methylthiazoletetrazolium (MTT) was added to each well, incubated for a further 4 hrs and then colour developed with 0.04N HCl in isopropanol (Mosmann 1983). Plates were read at 570 nm and 630 nm. The compounds were examined several times using different mice. For each assay, the effect of test compound was compared with that of vehicle control, and the results compared using a student's t test (Prism). Statistically significant difference was determined to have occurred when p<0.05.
Another assay examined the effect pre-incubating unstimulated splenocytes with test compounds at 10 μM for 24 hours, removing the compounds and then assessing their ability to respond to mitogenic stimulation as described for the previous assay. Cell numbers were assessed after the 24 hr pre-incubation using MTT, and equal numbers of cells/well plated into 96 well plates as usual.

TNFα synthesis = TNFα synthesis in human monocytes incubated with LPS; type: cell-based; conditions: LPS 200 ng/mL, 18 hrs
Description: (§2) Human peripheral blood monocytes (from three separate individuals) were isolated from buffy coats by lymphoprep gradient separation of mononuclear cells followed by counter-current centrifugal elutriation (Demasi et al. 2000). The test compounds were dissolved in DMSO and added to fresh monocytes After 30 min, LPS was added to achieve a final concentration of 200 ng/mL. After incubation for 18 hrs at 37° C. in 5% CO2, supernatants were removed and PGE2, TXB2 (the stable hydrolysis product of TXA2) and TNFα production were measured by radioimmunoassay (RIA).

PGE2 synthesis = PGE2 synthesis in human monocytes incubated with LPS; type: cell-based; conditions: LPS 200 ng/mL, 18 hrs, dose responsive
Description: as §2

[1] = tested on: UV irradiation-induced skin oedema; experiment: Murine model of UV irradiation-induced skin oedema; type: in vivo, female Skh:hr-1 albino mice; conditions: for Change in skin thickness (mean ± SD, ×0.01 mm): dorsal skin fold, topical 0.2 ml of 20 μM at 30 min, 2 h, 4 h
From the text: Groups of 4-5 female Skh:hr-1 albino mice were irradiated with 1×3 MEdD (minimal edematous dose) of solar simulated UV radiation (SSUV). Solar-simulated ultraviolet radiation (SSUV) was provided by a planar bank of 6 UVA tube (Hitachi 40W F40T 10/BL, black light) and one UVB tube (Philips TL 40W/12RS) with radiation filtered through a sheet of 0.125 mm cellulose acetate (Eastman Chemical Products, Kingport, Tenn., USA) to give 2.96×10-4W/cm2 UVA and 1.59×10-5W/cm2 UVB. The distance of the UV lamp from the irradiance table surface was approximately 20 cm and temperature was controlled with an electric fan. During irradiation, the cages were rotated below the lights to reduce the variation in radiation intensity in different positions.
Either test compound (0.2 ml of a 20 μM solution) or vehicle (propylene glycol/ethanol/water 1:2:1) was applied to the irradiated dorsal skin at 30 min, 2 h and 4 h post-irradiation. Dorsal skin fold measurements were made with a spring micrometer prior to and at 24 hr and 48 h post-UV exposure. The difference in skin thickness pre- and post-exposure to UVR was calculated for each mouse, and the differences examined between test compound and vehicle control were analysed using an unpaired two-tailed t test.

PGE2 = PGE2 in murine macrophages (RAW 264.7) stimulated with LPS; type: cell-based, mouse; conditions: RAW 264.7, LPS 50 ng/ml, 16 hrs, dose responsive
Description: (§3) The mouse macrophage cell line RAW 264.7 was cultured in DMEM supplemented with FCS, 2 mM glutamine and 50 U/ml penicillin/streptomycin. Subconfluent cells were detached from the flask by gentle scraping and 24-well plates seeded at 5×10^5 cells per well and allowed to adhere for 1 hr. Cells were then treated either test compounds (in 0.025% DMSO) or vehicle alone, and incubated for 1 hr. LPS 50 ng/ml (LPS —Sigma-Aldrich) was then added. After incubation for 16 hrs, culture media was collected and stored at −80° C. for ecosanoid and cytokine measurements using enzyme immunometric assays (PGE2 and TXB2—Cayman Chemical and TNFα—Becton Dickinson).

TXB2 = TXB2 in murine macrophages (RAW 264.7) stimulated with LPS; type: cell-based, mouse; conditions: RAW 264.7, LPS 50 ng/ml, 16 hrs, dose responsive
Description: as §3

TXB2 synthesis = TXB2 synthesis in human monocytes incubated with LPS; type: cell-based; conditions: LPS 200 ng/mL, 18 hrs, dose responsive
Description: as §2

splenocytes = experiment: Murine splenocyte proliferation with mitogens (MTT), 3 day incubation with compound; type: cell-based, Male Skh-1 (hairless) mice
Description: as §1, with “Splenocytes were added to triplicate wells containing either concanavalin A (ConA, Sigma-Aldrich—0.4 μg/well), lipopolysaccharide (LPS, Sigma-Aldrich—1 μg/well) or no mitogen, as well as 10 μM of either Compound 1 or Compound 2 in DMSO, or DMSO alone.” left out

Structure (SMILES): COc1ccc(C23COc4cc(O)ccc4C2C2c4ccc(O)cc4OCC2c2cc(OC)c(OC)cc23)cc1OC (stereo not drawn) [Cpd. 1, 4,9-Dihydroxy-14,15-dimethoxy-12a-(3′,4′-dimethoxyphenyl)-2,11-dioxa-(1H,12H)-6b,6c,12a,16b-tetrahydronaphtho[1,2-g]chrysene]
- Splenocyte viability following three days' culture in the absence of mitogen (unstimulated splenocytes): not affected
- reduction in cell numbers compared with vehicle alone (unstimulated splenocytes): 73%
- proliferative response to ConA after pre-incubation (unstimulated splenocytes; compound removed): no effect
- effect on induction of TNFα (TNFα synthesis): inhibited
- effect on PGE2 synthesis (PGE2 synthesis): induced
- inhibition of skin oedema ([1]; 24 hrs post-irradiation): significantly inhibited
- Change in skin thickness (mean ± SD, ×0.01 mm) ([1]; 24 hrs post-irradiation, vehicle 78 ± 23): 51 ± 14 ×0.01 mm
- Change in skin thickness (mean ± SD, ×0.01 mm) ([1]; 48 hrs post-irradiation, vehicle 147 ± 37): 117 ± 20 ×0.01 mm
- effect on PGE2 (PGE2): induced
- effect on TXB2 (TXB2): inhibited
- effect on TXB2 synthesis (TXB2 synthesis): inhibited
- effect on B cell proliferation (splenocytes; 10 μM, LPS, 3 day incubation): no effect
- enhancement of proliferation of unstimulated splenocytes (splenocytes; 10 μM, no mitogen, significant in 5/6 assays): 25-33%
- inhibition at 10 µM (splenocytes; Mus musculus, Splenocyte, 72 h, 10 μM, ConA, 3 day incubation, significant in 4/6 assays, read-out: inhibition of T cell proliferation): 14 to 19%
- proliferation compared with vehicle control (splenocytes; higher concentrations (than 10 μM), regardless of mitogenic stimulation): reduced proliferation
